Among the test systems are HL-60(TB) leukemia; HOP-92 NSCLC; 786-0 renal; OVCAR-3 ovarian; OVCAR-8 ovarian; MOLT-4 leukemia; SF-295 CNS; HS 578T breast; ACHN renal; SF-268 CNS.
Test in all cases: NCI tumour cell line growth inhibition, 48 h

This note sets out measurements from PubChem BioAssay (NCI).

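Five compound concentrations were applied to cells in 96-well plates for 48 hours; endpoints were derived by simple linear interpolation of the resulting dose-response curve. The concentration for 50% growth inhibition is given as GI50. TGI: concentration producing complete growth inhibition.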

Turning to `CCCC(=O)Nc1c(I)cc(I)c(CC(CC)C(=O)O)c1I` (centres undefined), the GI50 in the test on HL-60(TB) leukemia, with HOP-92 NSCLC, in the test on 786-0 renal, in the test with OVCAR-3 ovarian, with OVCAR-8 ovarian and in the test with MOLT-4 leukemia was above 100 µM in each case. Further, the GI50 in the test on SF-295 CNS, with HS 578T breast, with ACHN renal and in the test on SF-268 CNS was above 100 µM each time. In addition, the TGI with HL-60(TB) leukemia, with HOP-92 NSCLC, in the test on 786-0 renal, in the test on OVCAR-3 ovarian, in the test on OVCAR-8 ovarian and in the test with MOLT-4 leukemia was above 100 µM throughout. The TGI in the test with SF-295 CNS, in the test on HS 578T breast, with ACHN renal and in the test on SF-268 CNS was above 100 µM in each case.

For the compound `CCCCCCC/C=C1\CCC(CN(C)C)C1=O` (centres undefined), the TGI with HL-60(TB) leukemia worked out at 9.09 µM; with HOP-92 NSCLC it was 33.7 µM; in the test with 786-0 renal, 3.84 µM; in the test on OVCAR-3 ovarian, 18 µM; in the test with OVCAR-8 ovarian, 18 µM; in the test on MOLT-4 leukemia, 7 µM. In addition, the TGI is 30.1 µM with SF-295 CNS, above 100 µM in the test with HS 578T breast, 31.6 µM in the test on ACHN renal and 35.8 µM with SF-268 CNS.

Consider `Cc1ccccc1C[P+](c1ccccc1)(c1ccccc1)c1ccccc1`, for which the GI50 with HL-60(TB) leukemia was 1.58 µM; in the test on HOP-92 NSCLC, 0.433 µM; in the test with 786-0 renal, 4.23 µM; with OVCAR-3 ovarian, 1 µM; in the test with OVCAR-8 ovarian, 1.48 µM; in the test on MOLT-4 leukemia, 4.9 µM. In addition, the GI50 in the test with SF-295 CNS is 2.34 µM; in the test with HS 578T breast it was 2.13 µM; with ACHN renal it was 7.28 µM; in the test on SF-268 CNS it was 1.89 µM. The TGI in the test with HL-60(TB) leukemia was 5.75 µM; in the test on HOP-92 NSCLC it was 3.77 µM; in the test with 786-0 renal, above 100 µM; in the test on OVCAR-3 ovarian it was above 100 µM; in the test on OVCAR-8 ovarian it was above 100 µM; in the test with MOLT-4 leukemia it was above 100 µM. Further, the TGI was above 100 µM in the test on SF-295 CNS, 33.7 µM in the test with HS 578T breast, above 100 µM in the test on ACHN renal and above 100 µM with SF-268 CNS.

Regarding `N#Cc1ccc(NC(=O)Nc2nc3ccc(OC(F)(F)F)cc3s2)cc1`, the GI50 with HL-60(TB) leukemia was 2.44 µM; in the test with HOP-92 NSCLC, 0.324 µM; in the test on 786-0 renal it was 2 µM; in the test with OVCAR-3 ovarian, 0.577 µM; with OVCAR-8 ovarian it was 2 µM; in the test with MOLT-4 leukemia, 1.88 µM. Further, the GI50 in the test with SF-295 CNS is 1.18 µM; with HS 578T breast it was 1.78 µM; in the test on ACHN renal, 0.732 µM; with SF-268 CNS, 3.06 µM. The TGI in the test on HL-60(TB) leukemia turned out to be 21.3 µM; with 786-0 renal, 6.35 µM; in the test with OVCAR-3 ovarian it was 14.3 µM; in the test on OVCAR-8 ovarian, 9.91 µM; with MOLT-4 leukemia, 13.4 µM; in the test on SF-295 CNS it was 4.22 µM. The TGI with HS 578T breast worked out at 7.65 µM; with ACHN renal it was 7.05 µM; in the test with SF-268 CNS, 16.8 µM.

For the compound `COc1ccc(-c2cc(-c3ccc(Cl)cc3)nc(SCCCCCCC(=O)NO)n2)cc1`, the GI50 in the test with HL-60(TB) leukemia was 1.19 µM; in the test on HOP-92 NSCLC, 1.17 µM; in the test on 786-0 renal, 1.16 µM; in the test with OVCAR-3 ovarian it was 1.49 µM; in the test with OVCAR-8 ovarian, 1.53 µM; in the test with MOLT-4 leukemia it was 0.79 µM. The GI50 in the test with SF-295 CNS was 1.22 µM; in the test with HS 578T breast, 1.81 µM; in the test on ACHN renal it was 1.11 µM; in the test with SF-268 CNS it was 1.79 µM. Besides, the TGI is 2.8 µM in the test on HL-60(TB) leukemia; 3.67 µM in the test with HOP-92 NSCLC; 3.26 µM with 786-0 renal; 6.85 µM in the test on OVCAR-3 ovarian; above 50 µM in the test with OVCAR-8 ovarian; 2.93 µM in the test on MOLT-4 leukemia. Further, the TGI was 3.01 µM with SF-295 CNS, above 50 µM with HS 578T breast, 2.67 µM in the test on ACHN renal and 6.54 µM with SF-268 CNS.

Regarding `C=C1C(=O)O[C@H]2[C@H]1CC/C(Cn1cc(-c3ccsc3)nn1)=C\CC[C@@]1(C)O[C@@H]21`, the GI50 in the test on HL-60(TB) leukemia is 1.91 µM; in the test on HOP-92 NSCLC it was 1.66 µM; in the test on 786-0 renal, 1.76 µM; in the test on OVCAR-3 ovarian, 1.06 µM; with OVCAR-8 ovarian it was 2.96 µM; with MOLT-4 leukemia it was 2.59 µM. For the same compound, the GI50 in the test with SF-295 CNS was 9.61 µM; in the test with HS 578T breast, 2.82 µM; in the test on ACHN renal, 1.32 µM; in the test with SF-268 CNS, 2.53 µM. Moreover, the TGI in the test on HL-60(TB) leukemia is 7 µM; in the test with HOP-92 NSCLC it was 3.62 µM; in the test on 786-0 renal, 3.96 µM; with OVCAR-3 ovarian it was 2.28 µM; in the test with OVCAR-8 ovarian, 11 µM; with MOLT-4 leukemia it was 6.9 µM. Moreover, the TGI in the test with SF-295 CNS came out at 21.5 µM; in the test with HS 578T breast, 16 µM; in the test on ACHN renal, 2.69 µM; in the test with SF-268 CNS it was 8.15 µM.

`CC(=Nc1ccccc1)C1=C(O)C(Cc2ccc(F)cc2)NC1=O` (centres undefined): the GI50 in the test on HL-60(TB) leukemia was 0.287 µM; with HOP-92 NSCLC, 0.327 µM; in the test with 786-0 renal, 9.67 µM; in the test on OVCAR-3 ovarian, 0.323 µM; in the test with OVCAR-8 ovarian, 2.73 µM; with MOLT-4 leukemia it was 3.18 µM. Further, the GI50 with HS 578T breast was 2.44 µM; in the test with ACHN renal it was 8.24 µM; with SF-268 CNS, 4.45 µM. Further, the TGI was above 100 µM in the test with HL-60(TB) leukemia; above 100 µM in the test on HOP-92 NSCLC; above 100 µM in the test with 786-0 renal; 1.2 µM in the test with OVCAR-3 ovarian; above 100 µM in the test on OVCAR-8 ovarian; above 100 µM in the test with MOLT-4 leukemia. In addition, the TGI in the test on HS 578T breast, with ACHN renal and with SF-268 CNS was above 100 µM throughout.

On to `O=C(Nc1ccc(N2CCNCC2)cn1)c1[nH]ncc1Nc1ncnc2sccc12`, for which the GI50 was 2.99 µM in the test with HL-60(TB) leukemia; 1.76 µM with HOP-92 NSCLC; 1.62 µM in the test on 786-0 renal; 2.02 µM with OVCAR-3 ovarian; 1.96 µM in the test on OVCAR-8 ovarian; 1.99 µM in the test on MOLT-4 leukemia. Also, the values for the GI50 in the test on SF-295 CNS, with HS 578T breast and in the test on ACHN renal were 11.9 µM, 2.86 µM and 2.17 µM, respectively. Further, the TGI worked out at 22.6 µM in the test on HL-60(TB) leukemia; 5.65 µM with HOP-92 NSCLC; 3.23 µM in the test with 786-0 renal; 4.38 µM with OVCAR-3 ovarian; 4.02 µM in the test on OVCAR-8 ovarian; 7.64 µM with MOLT-4 leukemia. Besides, the TGI with SF-295 CNS came to 28.9 µM; with HS 578T breast, 14.2 µM; in the test with ACHN renal, 5.33 µM.

With `C[C@H](C(O)CC(=O)C(C)(C)O)[C@H]1CC[C@@]2(C)[C@@H]3CC[C@H]4C(C)(C)[C@@H](OC5OC(COC6OC(CO)C(O)C(O)C6O)C(O)C(O)C5O)CC[C@]4(C)C3=CC[C@]12C` (some centres undefined), the TGI in the test on HL-60(TB) leukemia, with HOP-92 NSCLC, with 786-0 renal, in the test with OVCAR-3 ovarian, in the test with OVCAR-8 ovarian and in the test with SF-295 CNS was above 100 µM throughout. In addition, the TGI in the test with HS 578T breast, in the test with ACHN renal and in the test with SF-268 CNS was above 100 µM each time.

As to `O=c1c(-c2nc3ccccc3[nH]2)cc2ccccc2n1Cc1cn(Cc2ccccc2Cl)nn1`, the GI50 in the test on HL-60(TB) leukemia was 6.22 µM; in the test with HOP-92 NSCLC, 1.85 µM; with 786-0 renal it was 1.66 µM; with OVCAR-3 ovarian it was 2.01 µM; in the test on OVCAR-8 ovarian, 2.56 µM; with MOLT-4 leukemia it was 2.36 µM. The GI50 in the test with HS 578T breast is 1.93 µM; with ACHN renal it was 1.71 µM; in the test on SF-268 CNS it was 2.4 µM. Moreover, the TGI is above 100 µM in the test with HL-60(TB) leukemia; 4.93 µM in the test on HOP-92 NSCLC; 3.27 µM in the test on 786-0 renal; 4.17 µM with OVCAR-3 ovarian; 9.27 µM in the test with OVCAR-8 ovarian; above 100 µM with MOLT-4 leukemia. Besides, the TGI stood at 5.91 µM in the test on HS 578T breast, 3.27 µM in the test with ACHN renal and 8.74 µM in the test on SF-268 CNS.

For `CC(C)C1=CC23CCC4C(C)(C(=O)O)CCCC4(C)C2CC1C1C(=O)N(c2cccc(N4C(=O)C5C6CC7C8(C)CCCC(C)(C(=O)O)C8CCC7(C=C6C(C)C)C5C4=O)c2)C(=O)C13` (centres undefined), the TGI is 30.7 µM with HL-60(TB) leukemia; 39.6 µM in the test on HOP-92 NSCLC; above 100 µM in the test on 786-0 renal; 25.7 µM in the test with OVCAR-3 ovarian; 22.7 µM in the test with OVCAR-8 ovarian; 40.1 µM with MOLT-4 leukemia. The TGI with HS 578T breast worked out at 24.6 µM; in the test with ACHN renal, 26.1 µM; in the test with SF-268 CNS, 27.8 µM.

Take `COC(=O)CCCNC(=O)C(=O)c1c(O)c(O)c(C(C)C)c2cc(C)c(-c3c(C)cc4c(C(C)C)c(O)c(O)c(C(=O)C(=O)NCCCC(=O)OC)c4c3O)c(O)c12`: the GI50 in the test on HL-60(TB) leukemia is 0.931 µM; with HOP-92 NSCLC, 0.37 µM; in the test on 786-0 renal it was 1.07 µM; with OVCAR-3 ovarian, 0.32 µM; in the test on OVCAR-8 ovarian, 0.604 µM; with SF-295 CNS, 0.25 µM. Also, the results for the GI50 with HS 578T breast, in the test on ACHN renal and with SF-268 CNS were 0.975 µM, 0.21 µM and 0.435 µM, respectively. The TGI worked out at 6.76 µM with HL-60(TB) leukemia; 2.13 µM with HOP-92 NSCLC; 7.54 µM with 786-0 renal; 3.46 µM with OVCAR-3 ovarian; 2.5 µM in the test on OVCAR-8 ovarian; 5.22 µM in the test on SF-295 CNS. Also, the TGI came out at 11.6 µM in the test with HS 578T breast, 4.09 µM in the test with ACHN renal and 5.13 µM with SF-268 CNS.
